Patent publication US9271978B2 (Zenith Epigenetics Corp., priority 2012, dated 2016)

Experiments:
Set-up in all cases: key: Active: Compounds with an IC50 value less than 30 μM were deemed to be active.; Not Active: Compounds with an IC50 value less than 30 μM were deemed to be active
hIL-6 mRNA = assay: Inhibition of hIL-6 mRNA transcription in U937 cells; format: cell-based, human; conditions: LPS stimulation, active = IC50 <30 μM
Experimental: In this example, hIL-6 mRNA in tissue culture cells was quantitated to measure the transcriptional inhibition of hIL-6 when treated with a compound of the present disclosure.
A human leukemic monocyte lymphoma cell line (U937) was plated (3.2×10^4 cells per well) in a 96-well plate in […] RPMI-1640 containing 10% FBS and penicillin/streptomycin, and differentiated into macrophages for 3 days in 60 ng/mL PMA ([…]) at 37° C. in 5% CO2 prior to the addition of the compound of interest. The cells were pretreated for 1 h with the test compound prior to stimulation with 1 ug/mL lipopolysaccharide from Escherichia coli. The cells were incubated at 37° C. for 3 h before the cells were harvested. At time of harvest, the spent media was removed from the cells and the cells were rinsed in […] PBS. Cell lysis solution (70 μL) was added the cells in each well and incubated for 5-10 min at room temperature, to allow for complete cell lysis and detachment. mRNA was then prepared using the “mRNA Catcher PLUS plate” (Invitrogen), according to the protocol supplied. After the last wash, as much wash buffer as possible was aspirated without allowing the wells to dry. Elution buffer (E3, 70 μL) was then added to each well. mRNA was then eluted by incubating the mRNA Catcher PLUS plate with Elution Buffer for 5 min at 68° C. and then immediately placing the plate on ice.
The eluted mRNA isolated was then used in a one-step quantitative real-time PCR reaction, using components of the Ultra Sense Kit together with Applied Biosystems primer-probe mixes. Real-time PCR data was analyzed, normalizing the Ct values for hIL-6 to an internal control, prior to determining the fold induction of each unknown sample, relative to the control.

[1] = biological target: T1, Brd4 bromodomain 1 (BRD4(1)) (Homo sapiens, UniProt O60885); assay: Inhibition of tetra-acetylated histone H4 binding to Brd4 bromodomain 1 (TR-FRET); conditions: tetra-acetylated histone H4 peptide, active = IC50 <30 μM
T1 construct: Illustrative results with the first bromodomain of Brd4; made in house; host or cells: E. coli BL21 (DE3)
How it was run: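 IC50 values come from dose-response curves of the 665 nm to 620 nm TR-FRET signal decrease, measured after 2 h at room temperature. Reactions contained 200 nM E. coli-expressed His-tagged bromodomain, 25-50 nM biotinylated tetra-acetylated H4 peptide, Eu-streptavidin plus XL665 anti-His antibody, with 30 mM HEPES pH 7.4, 320 mM KF and 0.2% DMSO.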

[2] = biological target: T2, second bromodomain of Brd2 (BRD2(2)) (Homo sapiens, UniProt P25440); assay: Inhibition of tetra-acetylated histone H4 binding to Brd2 bromodomain 2 (TR-FRET); conditions: tetra-acetylated histone H4 peptide, active = IC50 <30 μM
T2 construct: made in house; host or cells: E. coli BL21 (DE3)
Experimental: Proteins were cloned and overexpressed with a N-terminal 6×His tag, then purified by nickel affinity followed by size exclusion chromatography. Briefly, E. coli BL21 (DE3) cells were transformed with a recombinant expression vector encoding N-terminally Nickel affinity tagged bromodomains from Brd2, Brd3, Brd4. Cell cultures were incubated at 37° C. with shaking to the appropriate density and induced overnight with IPTG. The supernatant of lysed cells was loaded onto Ni-IDA column for purification. Eluted protein is pooled, concentrated and further purified by size exclusion chromatography. Fractions representing monomeric protein were pooled, concentrated, aliquoted, and frozen at −80° C. for use in subsequent experiments.
Binding of tetra-acetylated histone H4 and BET bromodomains was confirmed by a Time Resolved Fluorescence Resonance Energy Transfer (TR-FRET) method. N-terminally His-tagged bromodomains (200 nM) and biotinylated tetra-acetylated histone H4 peptide (25-50 nM, Millipore) were incubated in the presence of Europium Cryptate-labeled streptavidin (Cisbio Cat. #610SAKLB) and XL665-labeled monoclonal anti-His antibody (Cisbio Cat. #61HISXLB) in a white 96 well microtiter plate (Greiner). For inhibition assays, serially diluted test compound was added to these reactions in a 0.2% final concentration of DMSO. Final buffer concentrations were 30 mM HEPES pH 7.4, 30 mM NaCl, 0.3 mM CHAPS, 20 mM phosphate pH 7.0, 320 mM KF, 0.08% BSA). After a 2-h incubation at room temperature, the fluorescence by FRET was measured at 665 and 620 nm by a SynergyH4 plate reader (Biotek). Illustrative results with the first bromodomain of Brd4 and the second bromodomain of Brd2 are shown below. The binding inhibitory activity was shown by a decrease in 665 nm fluorescence relative to 620 nm. IC50 values were determined from a dose response curve.

[3] = test system: human AML MV-4-11 (CRL-9591) cells; assay: Inhibition of cell proliferation in MV4-11 cells; format: cell-based; conditions: human AML MV-4-11 cells, 72 h; active = IC50 <30 μM
Experimental: MV4-11 cells: 96-well plates were seeded with 5×10^4 cells per well of exponentially growing human AML MV-4-11 (CRL-9591) cells and immediately treated with two-fold dilutions of test compounds, ranging from 30 μM to 0.2 μM. Triplicate wells were used for each concentration, as well as a media only and three DMSO control wells. The cells and compounds were incubated at 37° C., 5% CO2 for 72 h before adding 20 μL of the CellTiter Aqueous One Solution (Promega) to each well and incubating at 37° C., 5% CO2 for an additional 3-4 h. The absorbance was taken at 490 nm in a spectrophotometer and the percentage of proliferation relative to DMSO-treated cells was calculated after correction from the blank well. IC50 were calculated using the GraphPad Prism software.

T2 sequence (P25440 344-453 limits assumed): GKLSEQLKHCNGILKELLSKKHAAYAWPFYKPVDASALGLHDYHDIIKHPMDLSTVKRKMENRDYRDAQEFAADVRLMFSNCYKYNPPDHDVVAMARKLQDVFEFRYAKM

SMILES | IL-6 activity (IC50 <30 μM) (hIL-6 mRNA) | FRET activity (IC50 <30 μM) BRD4(1) [1] | FRET activity (IC50 <30 μM) BRD2(2) [2] | Cell Proliferation activity (IC50 <30 μM) [3]
Cc1noc(C)c1-c1ccc(=O)n(Cc2ccccc2OC(F)(F)F)n1 [Example 39, 6-(3,5-Dimethylisoxazol-4-yl)-2-(2-(trifluoromethoxy)benzyl)pyridazin-3(2H)-one] | Active | Active | Active | 
COc1ccc(Cn2cc(-c3c(C)noc3C)ccc2=O)cc1OC [Example 131, 1-(3,4-Dimethoxybenzyl)-5-(3,5-dimethylisoxazol-4-yl)pyridin-2(1H)-one] | Active | Active | Active | 
Cc1noc(C)c1-c1cc(C)c(=O)n(Cc2ccncc2)n1 [Example 87, 6-(3,5-Dimethylisoxazol-4-yl)-4-methyl-2-(pyridin-4-ylmethyl)pyridazin-3(2H)-one] | Not Active | Active | Active | Not Active
Cc1noc(C)c1-c1ccc(=O)n(C(C)c2ccccc2Cl)c1 (stereo not drawn) [Example 103, 1-(1-(2-Chlorophenyl)ethyl)-5-(3,5-dimethylisoxazol-4-yl)pyridin-2(1H)-one] | Not Active | Active | Active | 
Cc1noc(C)c1-c1cc(N)c(=O)n(Cc2ccccc2)n1 [Example 250, 4-amino-2-benzyl-6-(3,5-dimethylisoxazol-4-yl)pyridazin-3(2H)-one] | Active | Active |  | Active
Cc1noc(C)c1-c1ccc(=O)n(C(C)c2ccccc2C(F)(F)F)c1 (stereo not drawn) [Example 38, 5-(3,5-Dimethylisoxazol-4-yl)-1-(1-(2-(trifluoromethyl)phenyl)ethyl)pyridin-2(1H)-one] | Active | Active | Active | 
Cc1noc(C)c1-c1ccc(=O)n(Cc2ccc(Cl)cc2F)c1 [Example 139, 1-(4-Chloro-2-fluorobenzyl)-5-(3,5-dimethylisoxazol-4-yl)pyridin-2(1H)-one] | Active | Active | Active | 
Cc1noc(C)c1-c1ccc(=O)n(Cc2cccnc2)c1 [Example 44, 5-(3,5-Dimethylisoxazol-4-yl)-1-(pyridin-3-ylmethyl)pyridin-2(1H)-one] | Not Active | Active | Active | 
Cc1cccc(Cn2cc(-c3c(C)noc3C)ccc2=O)n1 [Example 46, 5-(3,5-Dimethylisoxazol-4-yl)-1-((6-methylpyridin-2-yl)methyl)pyridin-2(1H)-one] | Active | Active | Active | 
Cc1cccc(Cn2cc(-c3c(C)noc3C)cc(N)c2=O)n1 [Example 244, 3-amino-5-(3,5-dimethylisoxazol-4-yl)-1-((6-methylpyridin-2-yl)methyl)pyridin-2(1H)-one] | Active | Active |  | 
Cc1noc(C)c1-c1ccc(=O)n(Cc2ccc(F)cc2F)c1 [Example 138, 1-(2,4-Difluorobenzyl)-5-(3,5-dimethylisoxazol-4-yl)pyridin-2(1H)-one] | Active | Active | Active | 
Cc1noc(C)c1-c1ccc(=O)n(Cc2ccc(Cl)c(F)c2)c1 [Example 141, 1-(4-Chloro-3-fluorobenzyl)-5-(3,5-dimethylisoxazol-4-yl)pyridin-2(1H)-one] | Active | Active | Active | 
Cc1cncc(Nc2cc(-c3c(C)noc3C)cn(Cc3ccccc3)c2=O)c1 [Example 246, 1-benzyl-5-(3,5-dimethylisoxazol-4-yl)-3-((5-methylpyridin-3-yl)amino)pyridin-2(1H)-one] |  | Active |  | Active
CNC(=O)c1ccc(Cn2nc(-c3c(C)noc3C)ccc2=O)cc1 [Example 89, 4-((3-(3,5-Dimethylisoxazol-4-yl)-6-oxopyridazin-1(6H)-yl)methyl)-N-methylbenzamide] | Not Active | Active | Active | 
Cc1noc(C)c1-c1ccc(=O)n(Cc2ccncc2)c1 [Example 129, 5-(3,5-Dimethylisoxazol-4-yl)-1-(pyridin-4-ylmethyl)pyridin-2(1H)-one] | Active | Active | Active | 
COc1ccc(Cn2cc(-c3c(C)noc3C)ccc2=O)cc1 [Example 130, 5-(3,5-Dimethylisoxazol-4-yl)-1-(4-methoxybenzyl)pyridin-2(1H)-one] | Active | Active | Active | 
Cc1noc(C)c1-c1cc(Nc2cccnn2)c(=O)n(Cc2ccccc2)c1 [Example 221, 1-benzyl-5-(3,5-dimethylisoxazol-4-yl)-3-(pyridazin-3-ylamino)pyridin-2(1H)-one] | Not Active | Active |  | 
Cc1noc(C)c1-c1ccc(=O)n(Cc2cccc3cccnc23)n1 [Example 102, 6-(3,5-Dimethylisoxazol-4-yl)-2-(quinolin-8-ylmethyl)pyridazin-3(2H)-one] | Active | Active | Active | 
Cc1ccc(Cn2cc(-c3c(C)noc3C)cc(N)c2=O)cn1 [Example 258, 3-amino-5-(3,5-dimethylisoxazol-4-yl)-1-((6-methylpyridin-3-yl)methyl)pyridin-2(1H)-one] | Active | Active |  | 
